Reference: patent publication US20260078103A1, “ISOQUINOLONES AS PI3K INHIBITORS” (OnKure, Inc., priority 2022, published 2026)
Read-outs that look alike come from different tables or passages of the source.

What was measured:
Type in all cases: cell-based
[1] = tested on: T47D cells expressing mutant PI3Ka (H1047R); test: In vitro cell proliferation, T47D cells (CellTiter-Glo); details: inhibition of proliferation, read-out: Avg T-47D EC50
Method in brief: (§1)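 EC50 values derive from a four-parameter logistic fit of luminescence-based (CellTiter-Glo) inhibition, referenced to 0.1% DMSO and 10 uM Alpelisib controls. Compound exposure lasted 72 h at 37 °C.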

[2] = tested on: SKBR3 cells express WT PI3Ka; test: In vitro cell proliferation, SKBR3 cells (CellTiter-Glo); details: inhibition of proliferation
Method in brief: as §1

[3] = tested on: phosphorylation of AKT (pAKT) in T47D cells expressing mutant PI3Ka (H1047R); test: In vitro cell pAKT (Ser473) HTRF, T47D cells; details: cellular pAKT, T47D cells, mutant PI3Ka (H1047R), 6 hours, read-out: Avg T-47D IC50
Method in brief: (§2)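 pAKT (Ser473) was quantified by HTRF in lysates from cells exposed 6 h at 37 °C to 10-point compound series, with T47D in insulin-supplemented RPMI/10% FBS and SKBR3 in McCoy's 5a/10% FBS. Controls: 0.1% DMSO (high) and 10 uM alpelisib (low). IC50 from sigmoidal curve fitting.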

[4] = tested on: phosphorylation of AKT (pAKT) in SKBR3 cells express WT PI3Ka; test: In vitro cell pAKT (Ser473) HTRF, SKBR3 cells; details: cellular pAKT
Method in brief: as §2

SMILES	EC50 ([1]; Homo sapiens, T47D, 72 h) [nM]	EC50 ([2]; Homo sapiens, SK-BR-3, 72 h) [nM]	IC50 ([3]; Homo sapiens, T47D, 6 h) [nM]	IC50 ([4]; Homo sapiens, SK-BR-3, 6 h) [nM]	EC50 ([1]; 72 hours) [nM]	EC50 ([2]; 72 hours) [nM]	IC50 [3] [nM]	IC50 ([4]; 6 hours) [nM]
Cc1cc([C@@H](C)Nc2ccccc2C(=O)O)c2cc(N3CCN(CC(F)(F)C4CC4)CC3)n(C)c(=O)c2c1 [Example 244]					1 to 500	> 15000	1 to 500	2000 to 15000
COc1ncc(-c2cc3c([C@@H](C)Nc4ccccc4C(=O)O)cc(C)cc3c(=O)n2C)cc1F [Example 246]	2000 to 15000	> 15000	2000 to 15000	> 15000				
Cc1cc([C@@H](C)Nc2ccccc2C(=O)O)c2cc(-c3cnc4c(c3)CCC4F)n(C)c(=O)c2c1 (stereo partly shown) [Example 248]	500 to 2000	> 15000	1 to 500	> 15000				
Cc1cc([C@@H](C)Nc2ccccc2C(=O)O)c2cc(N3CCN(c4ncn(C)n4)CC3)n(C)c(=O)c2c1 [Example 253]	500 to 2000	> 15000	500 to 2000	> 15000				
Cc1cc([C@@H](C)Nc2ccccc2C(=O)O)c2cc(N3CCN(c4cn(C)nn4)CC3)n(C)c(=O)c2c1 [Example 254]					2000 to 15000	> 15000	2000 to 15000	> 15000
COc1ncccc1N1CCN(c2cc3c([C@@H](C)Nc4ccccc4C(=O)O)cc(C)cc3c(=O)n2C)CC1 [Example 256]					1 to 500	2000 to 15000	1 to 500	2000 to 15000
Cc1cc([C@@H](C)Nc2ccc(F)cc2C(=O)O)c2cc(N3CCN(CC(F)(F)F)CC3)n(C)c(=O)c2c1 [Example 259]					1 to 500	> 15000	1 to 500	2000 to 15000
Cc1cc([C@@H](C)Nc2ccccc2C(=O)O)c2cc(N3CCC(C)(O)CC3)n(C)c(=O)c2c1 [Example 260]	500 to 2000	> 15000	2000 to 15000	> 15000				
Cc1cc([C@@H](C)Nc2ccccc2C(=O)O)c2cc(N3CCN(CCC(F)(F)F)CC3)n(C)c(=O)c2c1 [Example 264]					1 to 500	> 15000	1 to 500	> 15000
Cc1cc([C@@H](C)Nc2ccc(F)cc2C(=O)O)c2cc(-c3cnc(C(C)(C)F)c(F)c3)n(C)c(=O)c2c1 [Example 269]					1 to 500	2000 to 15000	1 to 500	2000 to 15000
Cc1cc([C@@H](C)Nc2ccccc2C(=O)O)c2cc(-c3cnc4occc4c3)n(C)c(=O)c2c1 [Example 270]	500 to 2000	> 15000	1 to 500	> 15000				
Cc1cc([C@@H](C)Nc2ccc(F)c(F)c2C(=O)O)c2cc(N3CCN(CC(F)(F)F)CC3)n(C)c(=O)c2c1 [Example 272]					1 to 500	2000 to 15000	1 to 500	2000 to 15000
Cc1cc([C@@H](C)Nc2ccccc2C(=O)O)c2cc(-c3cnn(C(C)(C)C#N)c3)n(C)c(=O)c2c1 [Example 273]	500 to 2000	> 15000	1 to 500	> 15000				
Cc1cc([C@@H](C)Nc2cnsc2C(=O)O)c2cc(N3CCN(CC(F)(F)F)CC3)n(C)c(=O)c2c1 [Example 274]	2000 to 15000	> 15000	2000 to 15000	> 15000				
COC(C)(C)c1ncc(-c2cc3c([C@@H](C)Nc4ccccc4C(=O)O)cc(C)cc3c(=O)n2C)cc1F [Example 277]					1 to 500	2000 to 15000	1 to 500	2000 to 15000
Cc1cc([C@@H](C)Nc2ccccc2C(=O)O)c2cc(-c3cnc(CF)c(F)c3)n(C)c(=O)c2c1 [Example 289]					1 to 500	> 15000	1 to 500	> 15000
Cc1cc([C@@H](C)Nc2ccccc2C(=O)O)c2cc(-c3cnc(C(C)(F)F)c(F)c3)n(C)c(=O)c2c1 [Example 291]	1 to 500	> 15000	1 to 500	> 15000				
Cc1cc([C@@H](C)Nc2ccccc2C(=O)O)c2cc(-c3cnc(C(F)(F)F)c(F)c3)n(C)c(=O)c2c1 [Example 295]	1 to 500	> 15000	1 to 500	> 15000				
Cc1cc([C@@H](C)Nc2ccccc2C(=O)O)c2cc(C3CCN(CC(F)(F)F)CC3)n(C)c(=O)c2c1 [Example 296]	1 to 500	> 15000	1 to 500	> 15000				
Cc1cc([C@@H](C)Nc2cccc(C)c2C(=O)O)c2cc(N3CCN(CC(F)(F)F)CC3)n(C)c(=O)c2c1 [Example 297]	2000 to 15000	> 15000	2000 to 15000	> 15000				
C#Cc1ccc(N[C@H](C)c2cc(C)cc3c(=O)n(C)c(N4CCN(CC(F)(F)F)CC4)cc23)c(C(=O)O)n1 [Example 299]	1 to 500	2000 to 15000	1 to 500	2000 to 15000				

Continued, values first:

EC50 ([1]; Homo sapiens, T47D, 72 h) [nM]	EC50 ([2]; Homo sapiens, SK-BR-3, 72 h) [nM]	IC50 ([3]; Homo sapiens, T47D, 6 h) [nM]	IC50 ([4]; Homo sapiens, SK-BR-3, 6 h) [nM]	EC50 ([1]; 72 hours) [nM]	EC50 ([2]; 72 hours) [nM]	IC50 [3] [nM]	IC50 ([4]; 6 hours) [nM]	SMILES
1 to 500	> 15000	1 to 500	> 15000					Cc1cc([C@@H](C)Nc2ccccc2C(=O)O)c2cc(-c3ccncc3)n(C)c(=O)c2c1 [Example 241]
1 to 500	> 15000	1 to 500	> 15000					Cc1cc([C@@H](C)Nc2ccccc2C(=O)O)c2cc(N3CCC(C)(C#N)C3)n(C)c(=O)c2c1 (stereo partly shown) [Example 243]
1 to 500	> 15000	1 to 500	> 15000					COCc1ncc(-c2cc3c([C@@H](C)Nc4ccccc4C(=O)O)cc(C)cc3c(=O)n2C)cc1F [Example 247]
1 to 500	> 15000	1 to 500	> 15000					Cc1cc([C@@H](C)Nc2ccccc2C(=O)O)c2cc(N3CCOCC3)n(C)c(=O)c2c1 [Example 249]
1 to 500	> 15000	1 to 500	> 15000					Cc1cc([C@@H](C)Nc2ccccc2C(=O)O)c2cc(N3CCN(OC(C)C)CC3)n(C)c(=O)c2c1 [Example 250]
1 to 500	> 15000	1 to 500	> 15000					Cc1cc([C@@H](C)Nc2ccccc2C(=O)O)c2cc(-c3cnc4c(c3)CCO4)n(C)c(=O)c2c1 [Example 252]
1 to 500	2000 to 15000	1 to 500	2000 to 15000					Cc1cc([C@@H](C)Nc2ccccc2C(=O)O)c2cc(N3CCN(c4nccnc4C)CC3)n(C)c(=O)c2c1 [Example 255]
1 to 500	2000 to 15000	1 to 500	2000 to 15000					CCc1ncccc1N1CCN(c2cc3c([C@@H](C)Nc4ccccc4C(=O)O)cc(C)cc3c(=O)n2C)CC1 [Example 257]
1 to 500	> 15000	1 to 500	> 15000					Cc1cc([C@@H](C)Nc2ccccc2C(=O)O)c2cc(-c3cnc4ccoc4c3)n(C)c(=O)c2c1 [Example 265]
1 to 500	> 15000	1 to 500	> 15000					Cc1cc([C@@H](C)Nc2ccccc2C(=O)O)c2cc(-c3cnc(C(C)(C)F)c(F)c3)n(C)c(=O)c2c1 [Example 268]
1 to 500	> 15000	1 to 500	> 15000					Cc1cc([C@@H](C)Nc2ccccc2C(=O)O)c2cc(-c3cnc(C)cn3)n(C)c(=O)c2c1 [Example 275]
1 to 500	> 15000	1 to 500	> 15000					Cc1cc([C@@H](C)Nc2ccccc2C(=O)O)c2cc(-c3cnc(C(C)C)nc3)n(C)c(=O)c2c1 [Example 276]
1 to 500	> 15000	1 to 500	> 15000					Cc1cc([C@@H](C)Nc2ccccc2C(=O)O)c2cc(-c3cnc(OC4CC4)c(F)c3)n(C)c(=O)c2c1 [Example 281]
1 to 500	2000 to 15000	1 to 500	> 15000					Cc1cc([C@@H](C)Nc2ccccc2C(=O)O)c2cc(-c3cnc(COC(F)(F)F)c(F)c3)n(C)c(=O)c2c1 [Example 282]
1 to 500	> 15000	1 to 500	> 15000					Cc1cc([C@@H](C)Nc2ccccc2C(=O)O)c2cc(-c3cnc(C(C)(C)F)nc3)n(C)c(=O)c2c1 [Example 283]
1 to 500	> 15000	1 to 500	2000 to 15000					CCOc1ncc(-c2cc3c([C@@H](C)Nc4ccccc4C(=O)O)cc(C)cc3c(=O)n2C)s1 [Example 284]
1 to 500	2000 to 15000	1 to 500	2000 to 15000					Cc1cc([C@@H](C)Nc2ccccc2C(=O)O)c2c(F)c(N3CCN(CC(F)(F)F)CC3)n(C)c(=O)c2c1 [Example 285]
1 to 500	> 15000	1 to 500	> 15000					Cc1cc([C@@H](C)Nc2ccccc2C(=O)O)c2cc(-c3cnc(C(F)(F)F)nc3)n(C)c(=O)c2c1 [Example 288]
1 to 500	> 15000	1 to 500	> 15000					Cc1cc([C@@H](C)Nc2ccccc2C(=O)O)c2cc(-c3cnc(C(F)F)c(F)c3)n(C)c(=O)c2c1 [Example 290]
